Results taken from article PMC2095803 (Nucleic Acids Research, 2007).

Experiments:
Bst DNA polymerase [1] = target: T1, Bst DNA polymerase (Geobacillus stearothermophilus, UniProt P52026); experiment: PEP mismatch; type: biochemical, Bacillus stearothermophilus
T1 sequence (P52026 289-876 limits assumed): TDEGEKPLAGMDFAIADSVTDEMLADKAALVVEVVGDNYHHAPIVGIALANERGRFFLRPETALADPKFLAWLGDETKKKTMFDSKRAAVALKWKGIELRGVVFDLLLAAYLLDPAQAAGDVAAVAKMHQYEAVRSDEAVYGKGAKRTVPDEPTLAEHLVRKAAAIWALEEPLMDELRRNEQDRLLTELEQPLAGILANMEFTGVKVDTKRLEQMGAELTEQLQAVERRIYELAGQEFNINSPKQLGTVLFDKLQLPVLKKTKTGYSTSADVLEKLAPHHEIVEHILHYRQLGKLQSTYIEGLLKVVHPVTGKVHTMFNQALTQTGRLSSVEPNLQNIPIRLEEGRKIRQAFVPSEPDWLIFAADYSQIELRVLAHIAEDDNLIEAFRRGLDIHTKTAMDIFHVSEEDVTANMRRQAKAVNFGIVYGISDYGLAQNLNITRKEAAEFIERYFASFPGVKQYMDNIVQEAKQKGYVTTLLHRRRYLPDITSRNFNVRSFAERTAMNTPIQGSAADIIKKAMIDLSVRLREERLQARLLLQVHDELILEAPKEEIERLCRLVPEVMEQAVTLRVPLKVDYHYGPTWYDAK

[2] = target: T2, Therminator DNA polymerase (Thermococcus sp., UniProt Q56366, A485L/D141A/E143A); experiment: PEP; type: biochemical, Thermococcus species 9ºN-7
T2 sequence (Q56366 1-775 D141A/E143A/A485L): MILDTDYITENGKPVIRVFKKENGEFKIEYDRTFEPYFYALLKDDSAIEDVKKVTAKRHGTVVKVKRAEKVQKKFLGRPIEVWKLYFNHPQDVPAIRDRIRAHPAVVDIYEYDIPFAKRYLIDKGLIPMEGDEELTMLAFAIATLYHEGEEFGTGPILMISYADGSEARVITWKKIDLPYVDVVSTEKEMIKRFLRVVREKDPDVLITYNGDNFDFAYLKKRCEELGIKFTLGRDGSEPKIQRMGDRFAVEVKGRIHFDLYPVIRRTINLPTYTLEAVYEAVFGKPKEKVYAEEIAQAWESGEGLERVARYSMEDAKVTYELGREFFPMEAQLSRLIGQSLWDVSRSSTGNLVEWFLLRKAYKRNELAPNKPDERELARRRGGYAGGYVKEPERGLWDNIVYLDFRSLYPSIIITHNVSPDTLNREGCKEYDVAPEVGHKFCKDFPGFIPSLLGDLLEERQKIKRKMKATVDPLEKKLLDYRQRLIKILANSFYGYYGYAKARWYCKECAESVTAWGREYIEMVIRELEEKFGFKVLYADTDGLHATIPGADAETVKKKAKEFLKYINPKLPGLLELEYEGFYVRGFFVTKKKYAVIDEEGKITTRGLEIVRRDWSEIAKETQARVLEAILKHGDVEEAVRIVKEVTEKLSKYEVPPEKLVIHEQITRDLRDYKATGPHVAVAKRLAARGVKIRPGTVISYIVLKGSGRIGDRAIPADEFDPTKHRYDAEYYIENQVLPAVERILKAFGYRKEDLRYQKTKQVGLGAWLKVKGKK

Bst DNA polymerase [3] = target: T1, Bst DNA polymerase; experiment: PEP; type: biochemical, Bacillus stearothermophilus
[4] = target: Klenow(exo−) DNA polymerase (Escherichia coli, UniProt P00582, D355A/E357A); experiment: PEP; type: biochemical
Taq DNA polymerase = Taq DNA polymerase (Thermus aquaticus, UniProt P19821); experiment: PEP; type: biochemical, Thermus aquaticus YT-1
[5] = target: T3, DeepVent(exo−) DNA polymerase (Pyrococcus sp. GB-D, UniProt Q51334, D141A/E143A); experiment: PEP; type: biochemical, Pyrococcus species GB-D
T3 sequence (Q51334 with tags, fused parts or gaps D141A/E143A): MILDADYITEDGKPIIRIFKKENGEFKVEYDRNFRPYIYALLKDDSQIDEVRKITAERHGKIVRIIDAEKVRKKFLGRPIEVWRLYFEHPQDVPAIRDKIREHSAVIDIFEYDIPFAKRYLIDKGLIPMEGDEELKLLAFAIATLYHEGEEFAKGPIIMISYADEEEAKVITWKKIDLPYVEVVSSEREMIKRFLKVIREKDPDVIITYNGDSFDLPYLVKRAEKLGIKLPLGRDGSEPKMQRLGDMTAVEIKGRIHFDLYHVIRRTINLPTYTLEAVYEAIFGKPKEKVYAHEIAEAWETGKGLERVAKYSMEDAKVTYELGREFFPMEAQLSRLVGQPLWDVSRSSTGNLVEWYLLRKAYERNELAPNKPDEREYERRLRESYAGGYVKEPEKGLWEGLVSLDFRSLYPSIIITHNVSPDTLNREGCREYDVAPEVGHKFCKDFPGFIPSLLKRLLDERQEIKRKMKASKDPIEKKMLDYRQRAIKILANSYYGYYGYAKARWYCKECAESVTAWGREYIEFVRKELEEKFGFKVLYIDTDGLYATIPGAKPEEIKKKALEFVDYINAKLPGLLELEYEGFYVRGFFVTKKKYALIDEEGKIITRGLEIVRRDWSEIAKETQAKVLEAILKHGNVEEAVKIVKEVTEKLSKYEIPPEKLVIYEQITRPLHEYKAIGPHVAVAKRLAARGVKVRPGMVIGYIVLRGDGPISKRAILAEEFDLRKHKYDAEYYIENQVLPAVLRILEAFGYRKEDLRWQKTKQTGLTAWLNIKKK

[6] = Therminator, ratio of IC50 values
[7] = Klenow(exo−), ratio of IC50 values

Taq DNA polymerase, sequence (P19821 whole entry): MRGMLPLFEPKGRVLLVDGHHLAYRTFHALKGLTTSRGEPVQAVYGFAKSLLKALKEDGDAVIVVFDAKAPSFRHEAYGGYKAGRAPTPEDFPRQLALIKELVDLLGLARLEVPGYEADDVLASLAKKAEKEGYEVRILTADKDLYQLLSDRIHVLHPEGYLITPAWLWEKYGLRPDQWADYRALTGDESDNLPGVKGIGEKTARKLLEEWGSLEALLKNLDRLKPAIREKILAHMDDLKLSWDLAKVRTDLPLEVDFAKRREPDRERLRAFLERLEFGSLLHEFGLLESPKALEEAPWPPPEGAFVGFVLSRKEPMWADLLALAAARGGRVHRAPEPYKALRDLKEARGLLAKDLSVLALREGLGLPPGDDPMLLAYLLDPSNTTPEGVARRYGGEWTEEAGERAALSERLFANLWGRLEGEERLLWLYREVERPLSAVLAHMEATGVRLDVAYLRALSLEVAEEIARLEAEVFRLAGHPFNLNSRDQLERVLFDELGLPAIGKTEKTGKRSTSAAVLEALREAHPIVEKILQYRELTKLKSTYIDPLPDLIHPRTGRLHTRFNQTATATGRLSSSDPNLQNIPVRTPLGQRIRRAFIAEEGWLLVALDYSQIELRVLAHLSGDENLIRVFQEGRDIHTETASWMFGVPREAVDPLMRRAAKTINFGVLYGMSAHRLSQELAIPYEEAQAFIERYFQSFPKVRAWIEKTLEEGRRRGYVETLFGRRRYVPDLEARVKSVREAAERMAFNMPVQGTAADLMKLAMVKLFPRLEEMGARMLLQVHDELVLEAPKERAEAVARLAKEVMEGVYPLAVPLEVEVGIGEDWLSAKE

## Nc1ncnc2c1ncn2[C@H]1CC[C@@H](COP(=O)(O)OP(=O)(O)OP(=O)(O)O)O1 [ddATP, 2′,3′-dideoxyadenosine triphosphate, reference compound]
Bst DNA polymerase [1]; final concentration of 500 μM (data not shown)
  Mismatch incorporation: did not show mismatch incorporation
[2]
  IC50: 9.7 ± 1.1 nM
[2]; [6]
  Incorporation bias ddATP/dATP: 4.2
Bst DNA polymerase [3]
  IC50: 370 ± 30 nM
Bst DNA polymerase [3]; Bst, ratio of IC50 values
  Incorporation bias ddATP/dATP: 310
[4]
  IC50: 29 ± 5 nM
[4]; [7]
  Incorporation bias ddATP/dATP: 18
Taq DNA polymerase
  IC50: 12600 ± 900 nM
Taq DNA polymerase; Taq, ratio of IC50 values
  Incorporation bias ddATP/dATP: 2300
[5]
  IC50: 3400 ± 400 nM

## O=[N+]([O-])c1ccccc1CNc1ncnc2c1ncn2[C@H]1C[C@H](O)[C@@H](COP(=O)(O)OP(=O)(O)OP(=O)(O)O)O1 [Compound IIIc, N^6-(2-Nitrobenzyl)-2’-deoxyadenosine-5’-triphosphate]
Bst DNA polymerase [1]; Bst, C template base (oligoTemplate)
  Discrimination ratio, cytosine–adenine mismatch over complement thymidine base: 1100 fold
Bst DNA polymerase [1]; Bst, mismatched template bases A, C or G
  Nucleotide discrimination, IC50 of mismatched versus matched bases: greater than two orders of magnitude
[2]; [6]
  Incorporation bias Cpd IIIc/dATP: 1.3
  Incorporation bias Cpd IIIc/ddATP: 0.32
Bst DNA polymerase [3]; Bst, ratio of IC50 values
  Incorporation bias Cpd IIIc/dATP: 18
  Incorporation bias Cpd IIIc/ddATP: 0.057
[4]; [7]
  Incorporation bias Cpd IIIc/dATP: 2.7
  Incorporation bias Cpd IIIc/ddATP: 0.15
Taq DNA polymerase; Taq, ratio of IC50 values
  Incorporation bias Cpd IIIc/dATP: 380
  Incorporation bias Cpd IIIc/ddATP: 0.17
[5]
  IC50: 11 ± 0.6 nM
